# Experimental data published in ChEMBL document CHEMBL5465560, “Selectivity Literature for EUbOPEN Chemogenomic Library” (2024).
# How the values were obtained:
# [1] = biological target: Bromodomain and WD repeat-containing protein 1 (Homo sapiens) (UniProt Q9NSI6); assay: Selectivity interaction (Human bromodomain panel (DSF assay)) EUB0000233b BRWD1
# [2] = biological target: Serine/threonine-protein kinase SIK3 (Homo sapiens) (UniProt Q9Y2K2); assay: Selectivity interaction (KinomeScan (DiscoverX)) EUB0000607a SIK3; settings: at 10 µM
# Sequence of Serine/threonine-protein kinase SIK3 (Homo sapiens) (Q9Y2K2 whole entry, looked up): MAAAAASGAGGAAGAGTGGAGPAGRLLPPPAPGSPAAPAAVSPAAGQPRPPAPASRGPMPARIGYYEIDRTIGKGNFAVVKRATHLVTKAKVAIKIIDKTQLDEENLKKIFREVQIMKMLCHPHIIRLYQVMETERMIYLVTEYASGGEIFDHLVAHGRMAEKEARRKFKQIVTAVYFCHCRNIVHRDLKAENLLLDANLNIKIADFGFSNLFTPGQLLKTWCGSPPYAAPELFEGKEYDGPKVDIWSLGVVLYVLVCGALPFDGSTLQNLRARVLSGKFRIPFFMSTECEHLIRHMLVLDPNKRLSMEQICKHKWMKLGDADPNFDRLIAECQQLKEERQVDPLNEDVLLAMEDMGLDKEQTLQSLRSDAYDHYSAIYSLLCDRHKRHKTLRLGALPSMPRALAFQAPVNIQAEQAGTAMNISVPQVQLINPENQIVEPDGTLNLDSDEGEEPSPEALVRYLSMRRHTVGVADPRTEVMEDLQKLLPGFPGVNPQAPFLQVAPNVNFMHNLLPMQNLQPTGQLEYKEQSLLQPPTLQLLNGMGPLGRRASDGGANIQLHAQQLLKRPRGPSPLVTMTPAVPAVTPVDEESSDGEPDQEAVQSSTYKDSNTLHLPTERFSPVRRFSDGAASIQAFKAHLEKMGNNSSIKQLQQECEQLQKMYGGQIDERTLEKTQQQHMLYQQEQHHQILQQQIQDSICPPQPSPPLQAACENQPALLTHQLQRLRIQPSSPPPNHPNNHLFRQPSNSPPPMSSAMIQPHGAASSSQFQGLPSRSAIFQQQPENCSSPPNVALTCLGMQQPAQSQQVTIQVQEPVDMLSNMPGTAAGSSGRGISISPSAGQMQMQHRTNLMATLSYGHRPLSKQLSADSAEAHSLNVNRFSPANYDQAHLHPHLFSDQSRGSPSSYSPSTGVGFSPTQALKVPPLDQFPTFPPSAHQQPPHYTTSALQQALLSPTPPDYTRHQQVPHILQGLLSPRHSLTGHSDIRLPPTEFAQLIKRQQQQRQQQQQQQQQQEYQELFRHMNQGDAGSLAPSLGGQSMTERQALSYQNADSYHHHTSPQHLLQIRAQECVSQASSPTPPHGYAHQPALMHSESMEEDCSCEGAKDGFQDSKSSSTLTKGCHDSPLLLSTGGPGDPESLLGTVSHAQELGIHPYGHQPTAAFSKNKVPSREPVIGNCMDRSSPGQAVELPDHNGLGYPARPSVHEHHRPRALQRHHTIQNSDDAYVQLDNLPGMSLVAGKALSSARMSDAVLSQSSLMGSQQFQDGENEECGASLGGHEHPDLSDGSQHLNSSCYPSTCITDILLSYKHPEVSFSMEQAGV
# [3] = biological target: T1, Tyrosine-protein kinase ZAP-70 (Homo sapiens) (UniProt P43403); assay: Selectivity interaction (KinomeScan (DiscoverX)) EUB0000607a ZAP70; settings: at 10 µM
# T1 sequence (whole entry): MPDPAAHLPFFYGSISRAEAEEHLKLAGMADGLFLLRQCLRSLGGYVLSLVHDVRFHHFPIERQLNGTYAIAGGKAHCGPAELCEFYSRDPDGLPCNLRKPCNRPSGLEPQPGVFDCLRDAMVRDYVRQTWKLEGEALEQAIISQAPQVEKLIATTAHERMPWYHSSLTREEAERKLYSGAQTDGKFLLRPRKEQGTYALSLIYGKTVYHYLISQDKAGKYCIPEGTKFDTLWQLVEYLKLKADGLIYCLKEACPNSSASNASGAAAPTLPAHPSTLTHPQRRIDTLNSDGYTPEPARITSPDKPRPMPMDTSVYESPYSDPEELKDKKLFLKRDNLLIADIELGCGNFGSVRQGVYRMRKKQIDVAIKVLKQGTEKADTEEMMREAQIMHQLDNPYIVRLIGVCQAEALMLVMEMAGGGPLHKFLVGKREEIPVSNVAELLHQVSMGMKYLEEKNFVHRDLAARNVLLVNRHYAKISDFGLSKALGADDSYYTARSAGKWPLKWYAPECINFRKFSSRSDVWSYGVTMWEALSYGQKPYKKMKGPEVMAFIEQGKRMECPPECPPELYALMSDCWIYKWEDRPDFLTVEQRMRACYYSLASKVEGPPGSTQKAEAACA
# [4] = biological target: T2, Mitogen-activated protein kinase 12 (Homo sapiens) (UniProt P53778); assay: Selectivity interaction (KinomeScan (DiscoverX)) EUB0000695a MAPK12; settings: at 100 nM
# T2 sequence (whole entry): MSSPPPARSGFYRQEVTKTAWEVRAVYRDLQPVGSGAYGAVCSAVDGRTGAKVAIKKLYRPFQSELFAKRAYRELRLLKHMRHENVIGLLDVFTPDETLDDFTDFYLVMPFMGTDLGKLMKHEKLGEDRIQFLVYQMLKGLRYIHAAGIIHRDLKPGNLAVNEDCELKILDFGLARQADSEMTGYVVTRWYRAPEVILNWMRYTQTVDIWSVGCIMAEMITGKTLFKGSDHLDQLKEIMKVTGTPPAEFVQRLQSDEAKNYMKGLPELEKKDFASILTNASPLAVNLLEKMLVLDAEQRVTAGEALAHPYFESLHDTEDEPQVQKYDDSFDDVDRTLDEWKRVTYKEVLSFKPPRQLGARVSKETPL
# [5] = biological target: SRSF protein kinase 1 (Homo sapiens, UniProt Q96SB4); assay: Selectivity interaction (KinomeScan (DiscoverX)) EUB0000595a SRPK1; settings: at 10 µM
# [6] = biological target: Dual specificity testis-specific protein kinase 1 (Homo sapiens) (UniProt Q15569); assay: Selectivity interaction (KinomeScan (DiscoverX)) EUB0001049a TESK1; settings: at 1 µM
# [7] = biological target: T3, Mitogen-activated protein kinase kinase kinase kinase 2 (Homo sapiens) (UniProt Q12851); assay: Selectivity interaction (KinomeScan (DiscoverX)) EUB0000092b MAP4K2; settings: at 10 µM
# T3 sequence (whole entry): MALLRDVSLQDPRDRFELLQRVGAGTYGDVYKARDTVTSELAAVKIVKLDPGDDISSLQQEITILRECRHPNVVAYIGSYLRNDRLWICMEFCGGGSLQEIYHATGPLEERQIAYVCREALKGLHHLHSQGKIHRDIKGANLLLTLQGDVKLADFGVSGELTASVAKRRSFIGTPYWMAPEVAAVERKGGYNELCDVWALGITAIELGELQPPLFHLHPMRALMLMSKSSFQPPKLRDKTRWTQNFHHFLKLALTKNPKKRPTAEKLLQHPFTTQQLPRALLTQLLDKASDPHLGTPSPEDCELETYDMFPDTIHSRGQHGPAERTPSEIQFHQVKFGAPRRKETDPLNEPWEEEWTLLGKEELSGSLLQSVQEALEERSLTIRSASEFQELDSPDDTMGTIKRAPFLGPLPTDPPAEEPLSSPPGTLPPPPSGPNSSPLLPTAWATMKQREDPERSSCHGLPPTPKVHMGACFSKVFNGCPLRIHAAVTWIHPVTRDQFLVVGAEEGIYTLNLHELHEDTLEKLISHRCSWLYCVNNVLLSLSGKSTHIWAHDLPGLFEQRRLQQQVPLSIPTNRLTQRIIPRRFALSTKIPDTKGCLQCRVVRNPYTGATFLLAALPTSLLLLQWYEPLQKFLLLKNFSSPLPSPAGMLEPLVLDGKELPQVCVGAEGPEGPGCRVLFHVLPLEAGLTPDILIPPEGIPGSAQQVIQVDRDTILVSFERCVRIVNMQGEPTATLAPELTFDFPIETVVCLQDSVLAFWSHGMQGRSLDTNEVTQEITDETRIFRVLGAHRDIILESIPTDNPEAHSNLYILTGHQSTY
# [8] = biological target: T4, Phosphatidylinositol 5-phosphate 4-kinase type-2 gamma (Homo sapiens) (UniProt Q8TBX8); assay: Selectivity interaction (ActivX KiNativ screen (ex vivo kinase selectivity in human PBMCs)) EUB0001619a PIP4K2C; assay type: cell-based; settings: PBMC, at 1 µM
# T4 sequence (whole entry): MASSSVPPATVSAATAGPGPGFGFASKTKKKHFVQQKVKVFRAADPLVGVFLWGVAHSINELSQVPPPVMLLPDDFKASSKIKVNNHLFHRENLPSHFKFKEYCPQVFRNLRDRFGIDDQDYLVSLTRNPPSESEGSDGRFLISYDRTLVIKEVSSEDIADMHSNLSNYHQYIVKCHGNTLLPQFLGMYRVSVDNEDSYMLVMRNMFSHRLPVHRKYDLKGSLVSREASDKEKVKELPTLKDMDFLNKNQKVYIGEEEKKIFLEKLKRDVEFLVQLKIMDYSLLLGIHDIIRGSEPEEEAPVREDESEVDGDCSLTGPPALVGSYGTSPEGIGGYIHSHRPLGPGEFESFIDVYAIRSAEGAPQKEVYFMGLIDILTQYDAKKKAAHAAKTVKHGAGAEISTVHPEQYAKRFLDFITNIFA
# [9] = biological target: Tyrosine-protein kinase Lyn (Homo sapiens, UniProt P07948); assay: Selectivity interaction (ActivX KiNativ screen (ex vivo kinase selectivity in human PBMCs)) EUB0001619a LYN; assay type: cell-based; settings: PBMC, at 1 µM
# Sequence of Tyrosine-protein kinase Lyn (P07948 2-512 limits assumed): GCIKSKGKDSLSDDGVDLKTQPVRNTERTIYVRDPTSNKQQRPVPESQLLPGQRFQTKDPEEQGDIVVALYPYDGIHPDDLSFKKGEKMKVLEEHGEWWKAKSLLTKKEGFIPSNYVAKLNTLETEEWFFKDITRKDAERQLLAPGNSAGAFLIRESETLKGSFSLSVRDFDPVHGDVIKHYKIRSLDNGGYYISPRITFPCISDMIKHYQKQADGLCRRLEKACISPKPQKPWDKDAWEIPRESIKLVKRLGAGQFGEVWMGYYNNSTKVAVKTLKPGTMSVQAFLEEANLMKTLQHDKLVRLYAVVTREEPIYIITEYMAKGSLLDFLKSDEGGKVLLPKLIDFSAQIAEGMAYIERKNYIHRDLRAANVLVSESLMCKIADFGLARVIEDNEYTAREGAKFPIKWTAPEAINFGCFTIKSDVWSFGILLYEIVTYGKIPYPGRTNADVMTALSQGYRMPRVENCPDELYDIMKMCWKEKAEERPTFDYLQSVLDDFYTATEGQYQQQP
# [10] = biological target: Calcium/calmodulin-dependent protein kinase kinase 2 (Homo sapiens) (UniProt Q96RR4); assay: Selectivity interaction (KinomeScan (DiscoverX)) EUB0001619a CAMKK2; settings: at 1 µM
# [11] = biological target: Cyclin-dependent kinase 14 (Homo sapiens) (UniProt O94921); assay: Selectivity interaction (KinomeScan (DiscoverX)) EUB0001619a CDK14; settings: at 1 µM
# Sequence of Cyclin-dependent kinase 14 (Homo sapiens) (O94921 whole entry): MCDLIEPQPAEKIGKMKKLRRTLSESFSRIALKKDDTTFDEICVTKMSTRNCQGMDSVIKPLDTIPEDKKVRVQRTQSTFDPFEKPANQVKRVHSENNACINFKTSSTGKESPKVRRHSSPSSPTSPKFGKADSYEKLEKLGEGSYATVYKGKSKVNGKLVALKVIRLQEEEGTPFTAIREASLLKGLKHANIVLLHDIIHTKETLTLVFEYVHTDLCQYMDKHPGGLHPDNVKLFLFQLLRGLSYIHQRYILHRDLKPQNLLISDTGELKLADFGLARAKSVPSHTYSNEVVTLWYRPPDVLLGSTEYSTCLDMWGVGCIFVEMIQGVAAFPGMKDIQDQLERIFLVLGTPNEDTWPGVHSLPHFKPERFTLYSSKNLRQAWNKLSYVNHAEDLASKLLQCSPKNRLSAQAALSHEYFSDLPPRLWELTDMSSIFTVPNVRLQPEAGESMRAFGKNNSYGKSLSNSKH
# Sequence of Bromodomain and WD repeat-containing protein 1 (Homo sapiens) (Q9NSI6 whole entry): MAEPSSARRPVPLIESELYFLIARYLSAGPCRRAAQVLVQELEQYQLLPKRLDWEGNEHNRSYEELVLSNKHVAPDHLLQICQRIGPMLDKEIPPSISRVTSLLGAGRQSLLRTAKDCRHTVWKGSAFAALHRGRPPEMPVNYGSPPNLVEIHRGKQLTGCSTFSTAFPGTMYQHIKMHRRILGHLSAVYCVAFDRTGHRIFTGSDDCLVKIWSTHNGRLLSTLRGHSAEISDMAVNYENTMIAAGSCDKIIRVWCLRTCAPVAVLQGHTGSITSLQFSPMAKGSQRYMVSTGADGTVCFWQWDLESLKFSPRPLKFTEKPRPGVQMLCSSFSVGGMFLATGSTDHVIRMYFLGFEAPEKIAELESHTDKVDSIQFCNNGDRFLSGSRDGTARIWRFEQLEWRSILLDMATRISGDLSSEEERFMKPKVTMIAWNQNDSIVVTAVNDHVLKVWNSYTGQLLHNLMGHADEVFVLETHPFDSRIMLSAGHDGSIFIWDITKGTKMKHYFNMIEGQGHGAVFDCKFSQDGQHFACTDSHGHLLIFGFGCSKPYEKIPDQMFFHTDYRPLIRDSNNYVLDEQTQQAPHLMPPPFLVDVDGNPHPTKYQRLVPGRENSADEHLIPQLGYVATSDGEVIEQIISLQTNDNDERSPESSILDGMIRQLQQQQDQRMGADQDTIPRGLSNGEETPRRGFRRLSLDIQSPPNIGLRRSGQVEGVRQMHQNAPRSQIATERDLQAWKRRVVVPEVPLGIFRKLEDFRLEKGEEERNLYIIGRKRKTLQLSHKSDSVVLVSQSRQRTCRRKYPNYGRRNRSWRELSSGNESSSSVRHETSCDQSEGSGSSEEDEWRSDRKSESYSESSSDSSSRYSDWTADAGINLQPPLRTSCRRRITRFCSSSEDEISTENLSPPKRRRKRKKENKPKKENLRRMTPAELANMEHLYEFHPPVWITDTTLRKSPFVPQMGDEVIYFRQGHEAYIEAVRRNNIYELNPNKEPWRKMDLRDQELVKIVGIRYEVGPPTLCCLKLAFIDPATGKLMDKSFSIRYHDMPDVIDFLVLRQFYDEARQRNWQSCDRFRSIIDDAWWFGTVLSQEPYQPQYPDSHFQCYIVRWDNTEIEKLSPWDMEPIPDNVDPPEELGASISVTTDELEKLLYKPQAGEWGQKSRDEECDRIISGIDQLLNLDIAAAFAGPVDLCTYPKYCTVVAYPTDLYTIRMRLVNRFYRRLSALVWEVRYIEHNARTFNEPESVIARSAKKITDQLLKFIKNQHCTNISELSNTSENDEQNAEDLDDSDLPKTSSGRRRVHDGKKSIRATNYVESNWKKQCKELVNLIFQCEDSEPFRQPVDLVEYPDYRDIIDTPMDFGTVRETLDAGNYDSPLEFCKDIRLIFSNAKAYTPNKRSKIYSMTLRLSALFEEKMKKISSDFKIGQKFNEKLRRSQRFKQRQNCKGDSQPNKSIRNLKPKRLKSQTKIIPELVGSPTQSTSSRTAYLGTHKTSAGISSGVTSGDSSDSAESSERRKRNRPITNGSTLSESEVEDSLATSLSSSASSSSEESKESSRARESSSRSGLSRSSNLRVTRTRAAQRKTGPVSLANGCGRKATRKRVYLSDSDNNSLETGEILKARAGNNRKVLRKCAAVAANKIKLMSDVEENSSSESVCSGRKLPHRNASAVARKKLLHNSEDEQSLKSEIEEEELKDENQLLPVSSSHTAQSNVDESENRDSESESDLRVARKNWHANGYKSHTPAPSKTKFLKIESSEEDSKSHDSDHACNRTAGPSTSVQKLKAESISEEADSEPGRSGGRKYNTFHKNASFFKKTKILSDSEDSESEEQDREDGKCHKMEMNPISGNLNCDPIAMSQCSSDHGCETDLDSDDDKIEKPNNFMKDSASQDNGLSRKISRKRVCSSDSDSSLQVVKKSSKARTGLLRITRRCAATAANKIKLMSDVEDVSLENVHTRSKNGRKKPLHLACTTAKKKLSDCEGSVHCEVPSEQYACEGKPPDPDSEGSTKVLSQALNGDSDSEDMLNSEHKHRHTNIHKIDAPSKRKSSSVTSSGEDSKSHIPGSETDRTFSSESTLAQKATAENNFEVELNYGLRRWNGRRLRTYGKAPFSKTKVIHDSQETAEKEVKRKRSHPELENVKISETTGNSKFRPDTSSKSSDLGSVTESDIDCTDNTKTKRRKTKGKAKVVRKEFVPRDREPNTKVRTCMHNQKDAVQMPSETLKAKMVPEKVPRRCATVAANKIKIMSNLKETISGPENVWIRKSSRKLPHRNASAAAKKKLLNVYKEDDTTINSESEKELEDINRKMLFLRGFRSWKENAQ
compound,measurement,setting,value
CN(C)CCCOc1ccc(-c2cc(NCCCn3cccn3)nc(S(C)(=O)=O)n2)cc1,dTM,[1],< 2 K
CNC(=O)Nc1ccc(-c2nc(N3CC4CCC(C3)O4)c3cnn(C4CCC5(CC4)OCCO5)c3n2)cc1,% of control,[2],35%
same,% of control,[3],83%
Cc1cc(F)c(C(=O)Nc2cccc(-c3nncn3C(C)C)n2)cc1-n1cnc(C2CC2)c1,% of control,[4],100%
COCC(=O)NC/C=C/c1ccc2ncnc(Nc3ccc(Oc4ccc(C)nc4)c(C)c3)c2c1 [CP-724714],% of control,[5],100%
COc1cc(Nc2nc(C)cc(-c3cnn4nc(OC)ccc34)n2)cc(C(F)(F)F)c1,% of control,[6],73%
CCC(=O)N1CCN(c2ccc(-n3c(=O)ccc4cnc5ccc(-c6cnc7ccccc7c6)cc5c43)cc2C(F)(F)F)CC1,% of control,[7],35%
N#Cc1cccc(-c2c[nH]c3ncnc(N4CCOCC4)c23)c1,% of inhibition,[8],54%
same,% of inhibition,[9],1%
same,% of control,[10],78%
same,% of control,[11],100%
